{"source": "paper PMC12691742", "about": "“Anti-Cancer Outcome of Glucocorticoid Receptor Transrepression by Synephrine Derivatives in Hematological Malignancies” (International Journal of Molecular Sciences, 2025)", "key": {"[1]": {"system": "primary lymphoblasts from pediatric patients with acute lymphoblastic leukemia", "assay": "Resazurin cytotoxicity assay in primary lymphoblasts", "assay_type": "cell-based", "details": "Homo sapiens", "description": "Peripheral blood samples were collected from 1–10-year-old pediatric patients with newly diagnosed ALL in the acute phase of the disease or from adult healthy volunteers at N.N. Blokhin National Research Center of Oncology. The Ethical Committee of the N.N. Blokhin National Research Center of Oncology approved this study, and written informed consents were provided. […] were isolated by centrifugation with Ficoll-Isopaque (“Paneco”, Russia) and then cultured in the RPMI-1640 media (“Paneco”, Russia) supplemented with 20% FBS (“Biowest”, France), 2 mM L-glutamine, 0.5 ME/mL penicillin and 0.5 µg/mL streptomycin (“Paneco”, Russia) and 10 mg/L phytohaemagglutinin (“Paneco”, Moscow, Russia).\nIsolated PBMCs were seeded into 96-well plates (2 × 10^6 cells/well) and treated with 10S-E2 at a wide range of concentrations (2–200 µM). Cell viability was analyzed after 24 h of incubation, assessing metabolic activity with the addition of 0.177 mg/mL of resazurin at 8–10 h before the end of the incubation. Fluorescence intensity was evaluated using a Fluoroskan FL microplate fluorimeter (“Thermo Scientific”, Waltham, MA, USA). The IC50 values were determined using GraphPad Prism (Ver.7.0) software. The experiments were performed in triplicate."}, "[2]": {"system": "FKBP51, GILZ, DDIT4 mRNA expression in K562 and Granta cells", "assay": "Q-PCR of GR transactivation marker genes", "assay_type": "cell-based", "details": "4 h (FKBP51, GILZ) or 24 h (DDIT4); Dex 10 µM, 10S-E2 0.1 µM; vs control", "description": "Q-PCR results were confirmed by Western blot analysis of the level of GR phosphorylated by Ser211, known as a crucial protein modification for GR TA realization because of its binding to short cysteine-rich fragments of the coactivator CREB-binding protein [41].\n(§1) Figure 3 Effects of synephrine derivatives on GR transactivation in Granta lymphoma and K562 leukemia cells. (A) Q-PCR analysis of FKBP51, GILZ, and DDIT4 mRNA expression in K562 and Granta cells. […] The Q-PCR results were normalized to the expression of the housekeeping gene RPL27 and are presented as fold changes compared to the control. The mean ± SD was calculated for three individual samples/condition (n = 3). Statistically significant differences compared to the control: * p < 0.05, ** p < 0.01. (B) The levels of the nuclear fraction of phospho-GR (Ser211) were determined using Western blot analysis (n = 3; characteristic images are presented in the figure). Histone H3 was used as a loading control.\nTotal RNA isolation from cell cultures and murine bones, reverse transcription, and Q-PCR were performed as described in [36]. Primers were designed using NCBI Primer-BLAST https://www.ncbi.nlm.nih.gov/tools/primer-blast/, accessed on 25 August 2025 (Supplementary Table S1). Results were normalized to the expression of the housekeeping RPL27 и Rpl27 genes. The experiments were performed in triplicate."}, "[3]": {"system": "GR phosphorylated by Ser211 in K562 and Granta cells", "assay": "Western blot of nuclear phospho-GR (Ser211)", "assay_type": "cell-based", "details": "10 h; Dex 10 µM, 4S-C2 50 µM, 8S-E3 50 µM, 10S-E2 15 µM, 13S-G2 25 µM", "protocol": "as §1\nWestern blot analysis was performed as previously described. Proteins were resolved using SDS-PAGE. Membranes were blocked with 5% nonfat milk solution and then incubated with primary antibodies against phosphorylated GR (pGR, Ser211) (“Santa Cruz Biotechnology”, Santa Cruz, CA, USA) overnight at 4 °C. To verify equal protein loading and adequate transfer, the membranes were probed with Histone H3 antibodies (“Cell Signaling”, Boston, MA, USA). Goat anti-rabbit IgGs (“Jackson Immuno Research”, West Grove, PA, USA) were used as secondary antibodies. Signals were detected using ECL reagent and an ImageQuant LAS4000 system (“GE HealthCare”, Chicago, IL, USA). ImageJ 1.54h software was used for densitometry. The experiments were performed in triplicate.\n7 K562, pGR nuclear 5 Granta, pGR nuclear\nSupplementary Figure S 22. Quantification of Western blot analysis. K562 and Granta cells […]\nμM) and 13S-G2 (25 μ M) for 10 h. Quantification of Western blot anal ysis of p- GR protein levels was done usin g Im a ge J f ree so ftwar e. Statisticall y significant diff eren ces as compared to control: […]"}, "[4]": {"system": "BALB/c female mice", "assay": "Glucocorticoid-induced osteoporosis model: bone and skin morphometry, body weight", "assay_type": "in vivo", "details": "Dex 20 mg/kg", "description": "(A) H&E bone staining and quantification of cortical bone thickness. (B) Q-PCR analysis of Rankl, Mmp9, Tsc2, Trap, and Bglap mRNA expression in bone tissue. […] (C) H&E skin staining and quantification of dermal adipose thickness (50 images per treatment group of 10 animals). Statistically significant differences compared to the control: * p < 0.05, ** p < 0.01.\nThe protocol for the experiment was approved by the local N.N. Blokhin National Medical Research Center Ethics Committee and corresponded to the guidelines for the welfare and use of animals in cancer research adopted by The United Kingdom Coordinating Committee on Cancer Prevention Research. […] Body weight was recorded twice a week for toxicity control.\nBone and skin samples from the GIOP experiment were fixed in formaldehyde and embedded in paraffin, and sections were stained with hematoxylin and eosin. After formaldehyde fixation, the bone samples were decalcified in decalcification buffer (0.5 M EDTA, 0.7 mM NaOH, pH7.0) for 14 days, washed twice with PBS, and further processed according to the standard histology protocol. The dermal adipose and bone thickness were quantified in sections stained with hematoxylin and eosin. At least five individual fields per slide of each sample/treatment (at least 50 images/treatment group) were analyzed using Axioplan2 microscope software (“Carl Zeiss”, Jena, Germany). The dermal adipose or bone thickness in treated animals is presented as a percentage of the control animals."}, "[5]": {"details": "i.p. every 24 h for 5 weeks, 10S-E2 10 mg/kg"}}, "note": "Entries after “also recorded” stand apart in the source; their conditions may differ. Like-named read-outs stand apart in the source and are kept apart here."}
{"smiles": "CCCCCCNCC(O)c1ccc(OCc2ccccc2)cc1", "note": "(stereo not drawn) [10S-E2, 1-[4-(benzyloxy)phenyl]-2-(hexylamino)ethanol]", "values": [{"measurement": "IC50", "setting": "[1]; 24 h, patient code 3, 24 h, read-out: IC50 of cytotoxic effect", "value": "40.9 ± 3.12", "unit": "µM"}, {"measurement": "IC50", "setting": "[1]; 24 h, patient code 4, 24 h, read-out: IC50 of cytotoxic effect", "value": "43.2 ± 9.48", "unit": "µM"}, {"measurement": "IC50", "setting": "[1]; 24 h, patient code 7, 24 h, read-out: IC50 of cytotoxic effect", "value": "43 ± 0.71", "unit": "µM"}, {"measurement": "IC50", "setting": "[1]; 24 h, patient code 8, 24 h, read-out: IC50 of cytotoxic effect", "value": "60.6 ± 0.97", "unit": "µM"}, {"measurement": "IC50", "setting": "[1]; 24 h, patient code 10, 24 h, read-out: IC50 of cytotoxic effect", "value": "71.3 ± 5.59", "unit": "µM"}, {"measurement": "IC50", "setting": "[1]; 24 h, patient code 12, 24 h, read-out: IC50 of cytotoxic effect", "value": "75.7 ± 4.63", "unit": "µM"}, {"measurement": "IC50", "setting": "[1]; 24 h, patient code 20, 24 h, read-out: IC50 of cytotoxic effect", "value": "64.2 ± 0.55", "unit": "µM"}, {"measurement": "IC50", "setting": "[1]; 24 h, patient code 21, 24 h, read-out: IC50 of cytotoxic effect", "value": "49.4 ± 1.95", "unit": "µM"}, {"measurement": "IC50", "setting": "[1]; 24 h, patient code 23, 24 h, read-out: IC50 of cytotoxic effect", "value": "55.2 ± 2.25", "unit": "µM"}, {"measurement": "IC50", "setting": "[1]; 24 h, patient code 24, 24 h, read-out: IC50 of cytotoxic effect", "value": "70.3 ± 2.54", "unit": "µM"}, {"measurement": "IC50", "setting": "[1]; 24 h, patient code 25, 24 h, read-out: IC50 of cytotoxic effect", "value": "80.3 ± 4.09", "unit": "µM"}, {"measurement": "IC50", "setting": "[1]; 24 h, patient code 30, 24 h, read-out: IC50 of cytotoxic effect", "value": "52.4 ± 0.07", "unit": "µM"}, {"measurement": "IC50", "setting": "[1]; 24 h, patient code 31, 24 h, read-out: IC50 of cytotoxic effect", "value": "63.2 ± 1.42", "unit": "µM"}, {"measurement": "IC50", "setting": "[1]; 24 h, patient code 33, 24 h, read-out: IC50 of cytotoxic effect", "value": "67.6 ± 4.02", "unit": "µM"}, {"measurement": "IC50", "setting": "[1]; 24 h, patient code 34, 24 h, read-out: IC50 of cytotoxic effect", "value": "55 ± 1.91", "unit": "µM"}, {"measurement": "IC50", "setting": "[1]; 24 h, patient code 35, 24 h, read-out: IC50 of cytotoxic effect", "value": "65.9 ± 0.27", "unit": "µM"}, {"measurement": "IC50", "setting": "[1]; 24 h, patient code 37, 24 h, read-out: IC50 of cytotoxic effect", "value": "69.8 ± 3.66", "unit": "µM"}, {"measurement": "IC50", "setting": "[1]; 24 h, patient code 39, 24 h, read-out: IC50 of cytotoxic effect", "value": "71.3 ± 2.59", "unit": "µM"}, {"measurement": "IC50", "setting": "[1]; 24 h, patient code 46, 24 h, read-out: IC50 of cytotoxic effect", "value": "71.5 ± 2.08", "unit": "µM"}, {"measurement": "IC50", "setting": "[1]; primary lymphoblast samples from 19 patients diagnosed with ALL, read-out: IC50 of cytotoxic effect, range over samples", "value": "40 to 70", "unit": "µM"}, {"measurement": "expression of TA marker genes FKBP51, GILZ, DDIT4", "setting": "[2]", "value": "did not increase the expression"}, {"measurement": "GR phosphorylation level at Ser211", "setting": "[3]", "value": "did not affect the phosphorylation"}, {"measurement": "animal body weight vs control", "setting": "[4]; GIOP study, 10S-E2 10 mg/kg i.p. every 24 h for 5 weeks", "value": "no statisticall y si gnificant differences; also recorded: similar"}, {"measurement": "loss of cortical bone thickness", "setting": "[4]; [5]", "value": "did not cause any loss"}, {"measurement": "reduction of dermal adipose tissue / skin atrophy", "setting": "[4]; [5]", "value": "preserved the skin architecture"}]}
